From patent publication US20070078185A1, “Methods and compositions for controlling invertebrate pests” (priority 2005, published 2007)

Legend:
C. elegans [1] = details: exogenous octopamine (Horvitz et al., Science 216:1012-1014 (1982)); cited from earlier work
C. elegans [2] = assay: In vivo response test: suppression of head oscillations in response to anterior touch, C. elegans on agar plates; details: compound added to C. elegans grown on agar plates at 0.3 mg/ml
Protocol: Behavioral assays were performed with young adults at room temperature (22-24° C.) and the different genotypes were scored in parallel on independent days. Egg-laying assays were performed as described by Koelle and Horvitz (Cell 84:115 (1996)). Suppression of head oscillations was tested by striking animals that were outside the bacterial lawn with a fine eyelash behind the posterior bulb of the pharynx; head oscillations were scored during backing response. Nose touch, osmotic avoidance touch were tested as previously described (see, for example, Way et al., Genes Dev. 3:1823-1833 (1989); or Bargmann et al., Cold Spring Harb. Symp. Quant. Biol. 55:529-538 (1990)). […] Animals were tested twenty-four hours after they were picked as late L4. Laser-ablated animals were tested at least ten times. […] Laser ablated animals were tested at least 20 times. Reversal assays were performed as described by Tsalik et al., J. Neurobiol. 56:178-197 (2003). Synthesis of 4-hydrazinomethyl-benzene-1,3-diol (compound 1). [drawing 4]
Alternatively, putative tyrosine decarboxylase inhibitors can be screened in vivo by observing its effect on invertebrates. […] Furthermore, a tyrosine decarboxylase inhibitor is expected to cause egg laying defects in nematodes, fruit flies, and other invertebrates. […]

C. elegans [3] = assay: Egg-laying assay with exogenous amine on Petri plates; type: in vivo; details: wild-type animals, Petri plates with bacteria containing 20 mM tyramine
Protocol: FIGS. 5A-SC are graphs showing that tdc-1 mutant nematodes are hyperactive in egg laying. […] Error bars indicate standard errors of the means. […] Single wild-type animals were transferred to Petri dishes with bacteria containing either no tyramine (n=13) or 20 mM tyramine (n=12). At the indicated times after transfer the number of eggs laid was counted. Error bars indicate standard errors ofthe means.
We therefore tested the effect of exogenous tyramine on egg laying behavior. Egg laying was inhibited on Petri plates containing 20 mM tyramine (FIG. 5C). […] Egg laying is regulated in part by the serotonergic HSN neurons, which induce muscle contraction of the vulva muscles (Trent et al., Genetics 104:619-647 (1983)).
Behavioral assays were performed with young adults at room temperature (22-24° C.) and the different genotypes were scored in parallel on independent days. Egg-laying assays were performed as described by Koelle and Horvitz (Cell 84:115 (1996)). Suppression of head oscillations was tested by striking animals that were outside the bacterial lawn with a fine eyelash behind the posterior bulb of the pharynx; head oscillations were scored during backing response. Nose touch, osmotic avoidance touch were tested as previously described (see, for example, Way et al., Genes Dev. 3:1823-1833 (1989); or Bargmann et al., Cold Spring Harb. Symp. Quant. Biol. 55:529-538 (1990)). […]

In the case of `NCC(O)c1ccc(O)cc1` (stereo not drawn) [octopamine], the “effect of exogenous octopamine on egg laying” value (C. elegans [1]) is given as “inhibitory effect”.
With `NC(CO)C(=O)NNCc1ccc(O)cc1O` (racemic) [compound 2, N-(DL-seryl)-N′-(2,4,-dihydroxybenzyl) hydrazine] the “suppression of head oscillations in response to anterior touch” value (C. elegans [2]) was “fail to suppress head oscillations”.
With `NCCc1ccc(O)cc1` [tyramine] the “effect of exogenous tyramine on egg laying” value (C. elegans [3]) was “inhibited”.
